Experimental data from patent US8937091B2 (Japan Science and Technology Agency, priority 2009, dated 2015).

Legend:
[1] = system: IICR (IP3 induced calcium release) in CHO cells; assay: Assay of IICR (IP3 induced calcium release)-inhibiting action; type: cell-based, Chinese hamster; conditions: Cricetulus griseus, CHO, CHO cells, 10 μM ATP, read-out: IICR level (percentage of inhibition); for inhibition at 10 µM: test compound 10 μmol; for inhibition at 30 µM: test compound 30 μmol; for inhibition at 100 µM: test compound 100 μmol
In short: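 CHO cell medium replaced with calcium-containing BSS; compound added 1 min later, then 10 μM ATP after a further 2 min. Percent inhibition of the ATP-evoked rise in intracellular calcium determined at each compound concentration.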

[2] = system: SOCE (store operated calcium entry) in CHO cells; assay: Assay of SOCE (store operated calcium entry)-inhibiting action; type: cell-based, Chinese hamster; conditions: Cricetulus griseus, CHO, CHO cells, thapsigargin, read-out: SOCE level (percentage of inhibition); for inhibition at 10 µM: test compound 10 μmol; for inhibition at 30 µM: test compound 30 μmol; for inhibition at 100 µM: test compound 100 μmol
In short: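 CHO cells in calcium-free BSS received compound, then 1 μM thapsigargin 2 min later to deplete stores; after 9 min, 2 mM calcium chloride (final) added. Percent inhibition of the rise in intracellular calcium determined at various compound concentrations.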

Structure (SMILES) | inhibition at 10 µM [1] [%] | inhibition at 30 µM [1] [%] | inhibition at 100 µM [1] [%] | inhibition at 10 µM [2] [%] | inhibition at 30 µM [2] [%] | inhibition at 100 µM [2] [%]
Cc1nc(C)c(C(=O)CCN(Cc2ccccc2)C(C)C)s1 [Example 219, 2-(N-benzylisopropyl)aminoethyl-5-(2,4-dimethylthiazolyl)ketone] | 20 | 90 | 100 | 0 | 0 | 0
Cc1nc(C)c(C(=O)CCNCCNCCO)s1 [Example 220, 2-(N-2-hydroxyaminoethyl)aminoethyl-5-(2,4-dimethylthiazolyl)ketone] | 0 | 40 | 40 | 0 | 0 | 0
Cc1cc(C(=O)CCN(Cc2ccccc2)C(C)C)c(C)o1 [Example 221, 2-(N-benzylisopropyl)aminoethyl-3-(2,5-dimethylfuryl)ketone] | 0 | 0 | 0 | 0 | 0 | 0
CC(C)N(CCC(=O)c1ccsc1)Cc1ccccc1 [Example 222, 2-(N-isopropylbenzyl)aminoethyl-3-thiophenylketone] | 0 | 30 | 80 | 0 | 0 | 10
O=C(CCNCCc1ccccc1)c1ccsc1 [Example 223, 2-(N-phenethyl)aminoethyl-3-thiophenylketone] | 0 | 0 | 0 | 0 | 10 | 20
CC(C)N(CCC(=O)n1ccnc1)Cc1ccccc1 [Example 224, 2-(N-isopropylbenzyl)aminoethyl-1-imidazolylketone] | 20 | 20 | 0 | 0 | 0 | 20
Cc1cc(C(=O)CCN(Cc2ccccc2)C(C)C)oc1C [Example 225, 2-(N-isopropylbenzyl)aminoethyl-4,5-dimethyl-2-furylketone] | 20 | 30 | 90 | 10 | 30 | 70
CCN(CCO)CCC(=O)c1cc(C)c(C)o1 [Example 226, 2-(N-2-hydroxyethylethyl)aminoethyl-4,5-dimethyl-2-furylketone] | 0 | 0 | 50 | 0 | 0 | 0
Cc1cc(C(=O)CCN(CCO)Cc2ccccc2)oc1C [Example 227, 2-(N-2-hydroxyethylbenzyl)aminoethyl-4,5-dimethyl-2-furylketone] | 20 | 0 | 20 | 0 | 0 | 0
CCN(CCO)CCC(=O)c1cc(C)sc1C [Example 228, 2-(N-2-hydroxyethylethyl)aminoethyl-2,5-dimethyl-3-thiophenylketone] | 20 | 0 | 20 | 0 | 0 | 20
Cc1cc(C(=O)CCN(CCO)CCO)c(C)s1 [Example 229, 2-(N,N-bis-2-hydroxyethyl)aminoethyl-2,5-dimethyl-3-thiophenylketone] | 0 | 0 | 0 | 0 | 0 | 0
Cc1cc(C(=O)CCN(CCO)C(C)C)c(C)s1 [Example 230, 2-(N-2-hydroxyethylisopropyl)aminoethyl-2,5-dimethyl-3-thiophenylketone] | 0 | 0 | 20 | 0 | 0 | 0
CC(C)(C)N(CCC(=O)c1cccnc1)Cc1ccccc1 [Example 231, 2-(N-benzyl-t-butyl)aminoethyl-3-pyridylketone] | 20 | 90 | 100 | 0 | 0 | 0
CC(C)(C)N(CCO)CCC(=O)c1cccnc1 [Example 232, 2-(N-t-butyl-2-hydroxyethyl)aminoethyl-3-pyridylketone] | 0 | 10 | 10 | 0 | 0 | 0
CN(CCC(=O)c1ccco1)Cc1ccccc1 [Example 233, 2-(N-benzylmethyl)aminoethyl-2-furylketone] | 30 | 70 | 80 | 0 | 0 | 10
CCCCN(CCO)CCC(=O)c1ccco1 [Example 234, 2-(N-2-hydroxyethylbutyl)aminoethyl-2-furylketone] | 0 | 70 | 80 | 0 | 0 | 10
CN(CCO)CCC(=O)c1ccco1 [Example 235, 2-(N-2-hydroxyethylmethyl)aminoethyl-2-furylketone] | 0 | 90 | 80 | 0 | 0 | 0
CN(CCC(=O)c1ccsc1)Cc1ccccc1 [Example 236, 2-(N-benzylmethyl)aminoethyl-3-thiophenylketone] | 10 | 10 | 80 | 0 | 0 | 20
CC(C)(C)N(CCC(=O)c1ccsc1)Cc1ccccc1 [Example 238, 2-(N-benzyl-t-butyl)aminoethyl-3-thiophenylketone] | 10 | 0 | 0 | 0 | 0 | 0
CCN(CCC(=O)c1ccc(C)o1)Cc1ccccc1 [Example 239, 2-(N-benzylethyl)aminoethyl-5-methyl-2-furylketone] | 0 | 50 | 80 | 0 | 0 | 10
Cc1ccc(C(=O)CCN(CCO)C(C)(C)C)o1 [Example 240, 2-(N-2-hydroxyethyl-t-butyl)aminoethyl-5-methyl-2-furylketone] | 10 | 30 | 50 | 0 | 0 | 0
Cc1ccc(C(=O)CCN(C)Cc2ccccc2)o1 [Example 241, 2-(N-benzylmethyl)aminoethyl-5-methyl-2-furylketone] | 0 | 0 | 70 | 0 | 0 | 10
CCN(CCC(=O)c1ccccn1)Cc1ccccc1 [Example 242, 2-(N-benzylethyl)aminoethyl-2-pyridylketone] | 30 | 80 | 90 | 0 | 0 | 0
O=C(CCN(CCO)CCO)c1ccccn1 [Example 243, 2-(N-bis-2-hydroxyethyl)aminoethyl-2-pyridylketone] | 0 | 0 | 50 | 0 | 0 | 0
CC(C)(C)N(CCO)CCC(=O)c1ccccn1 [Example 244, 2-(N-t-butyl-2-hydroxyethyl)aminoethyl-2-pyridylketone] | 0 | 0 | 0 | 0 | 0 | 0
O=C(CCN(CCO)Cc1ccccc1)c1cccs1 [Example 245, 2-(N-benzyl-2-hydroxyethyl)aminoethyl-2-thiophenylketone] | 0 | 0 | 0 | 0 | 0 | 0
CC(C)(C)N(CCO)CCC(=O)c1cccs1 [Example 246, 2-(N-t-butyl-2-hydroxyethyl)aminoethyl-2-thiophenylketone] | 10 | 0 | 0 | 0 | 0 | 0
